# From patent US5141926A, “Erythromycin derivatives” (Abbott Laboratories, priority 1990, dated 1992)
# Like-named read-outs stand apart in the source and are kept apart here.
# Legend:
# [1] = test system: Staphylococcus aureus ATCC 6538P; assay: Agar plate dilution MIC; assay type: cell-based; details: ATCC6538P
# Protocol: (§1) 6-Deoxyerythromycins A, B and C and 6-deoxy-15-norerythromycin B were tested for antibacterial activity using a standard agar plate dilution method in brain heart infusion broth. Erythromycin A was utilized as a control.
# [2] = test system: Streptococcus agalactiae CMX 508; assay: Agar plate dilution MIC; assay type: cell-based
# Protocol: as §1
# [3] = test system: Micrococcus luteus ATCC 9341; assay: Agar plate dilution MIC; assay type: cell-based
# Protocol: as §1
# [4] = test system: Staphylococcus epidermis 3519; assay: Agar plate dilution MIC; assay type: cell-based; details: brain heart infusion broth
# Protocol: as §1
# [5] = test system: Enterococcus faecium ATCC 8043; assay: Agar plate dilution MIC; assay type: cell-based
# Protocol: as §1
# [6] = test system: Streptococcus pyogenes EES61; assay: Agar plate dilution MIC; assay type: cell-based
# Protocol: as §1
# [7] = test system: Staphylococcus aureus CMX 553; assay: Agar plate dilution MIC; assay type: cell-based
# Protocol: as §1
# [8] = test system: Staphylococcus aureus NCTC 10649; assay: Agar plate dilution MIC; assay type: cell-based
# Protocol: as §1
# [9] = test system: Eschericha coli SS; assay: Agar plate dilution MIC; assay type: cell-based; details: brain heart infusion broth
# Protocol: as §1
# [10] = test system: Escherichia coli JUHL; assay: Agar plate dilution MIC; assay type: cell-based
# Protocol: as §1
# [11] = test system: Staphylococcus aureus 10649; assay: Acute mouse protection test; assay type: in vivo, female CF-1 mice; details: read-out: ED50 (Dose Providing 50% Survival)
# Protocol: (§2) The in vivo activity of 6-deoxyerythromycin A was evaluated using the acute mouse protection test. Mouse mortality was used to calcualte an ED50 value, i.e., the dose of drug required to protect 50% of the test animals against death due to inoculum challenge.
# (§3) The acute mouse protection test was conducted as described by Fernandes, et al. (Antimicrob. Agents Chemother. 29:201-208(1986)) on female CF-1 mice weighing 20-25 grams. The mice were injected intraperitoneally with bacterial suspensions at a concentration 100 times that producing an LD50 response. 6-Deoxyerythromycin A or erythromycin A were administered orally at 1 and 5 hours post-infection. The median effective doses for the cumulative mortalities on the sixth day after infection were calculated using a trimmed logit analysis (Hamilton, et. al., Environ Sci. Technol. 11:714-719 (1977)).
# [12] = test system: Streptococcus pneumoniae 6303; assay: Acute mouse protection test; assay type: in vivo, female CF-1 mice; details: read-out: ED50 (Dose Providing 50% Survival)
# Protocol: as §2, §3
# [13] = test system: Streptococcus pyogenes C203; assay: Acute mouse protection test; assay type: in vivo, female CF-1 mice; details: read-out: ED50 (Dose Providing 50% Survival)
# Protocol: as §2, §3
# [14] = test system: murine infections of Staphylococci and Streptococci; assay: Acute mouse protection test, overall result; assay type: in vivo, female CF-1 mice; details: orally administered
# Protocol: as §2, §3
# [15] = physchem; details: citric acid solution, pH 2.2
# Protocol: The relative acid stability of one of the compounds of the present invention was compared to that of erythromycin A. 11.8 mg of 6-deoxyerythromycin A was suspended in citric acid solution (pH 2.2) and allowed to remain at 37° C. for 8 hours. Aliquots were removed at 2, 5, 10, and 20 minutes and at 1, 2, 3, 4, 5, 6 and 8 hours. Degradation was quenced by adjusting each aliquot to pH 9.6 with 7.5 N NH4 OH, followed by extraction with methylene chloride.
# 10.5 mg of erythromycin A was identically suspended in critic acid solution (pH 2.0) and allowed to remain at 37° C. for 10 minutes. Aliquots were removed at 2, 5 and 10 minutes. Degradation was quenched by adjusting each aliquot to pH 9.6 with 7.5 N NH4 OH, followed by extraction with methylene chloride.
# [16] = Table 5, brain heart infusion broth, read-out: MIC value
# [17] = CMX508, Table 5, brain heart infusion broth, read-out: MIC value
# [18] = ATCC9341, Table 5, brain heart infusion broth, read-out: MIC value
# [19] = Staphylococcus, 3519, Table 5, read-out: MIC value
# [20] = ATCC8043, Table 5, brain heart infusion broth, read-out: MIC value
# [21] = EES61, Table 5, brain heart infusion broth, read-out: MIC value
# [22] = CMX553, Table 5, brain heart infusion broth, read-out: MIC value
# [23] = NCTC10649, Table 5, brain heart infusion broth, read-out: MIC value
# [24] = Table 5, brain heart infusion broth
# [25] = Table 4, brain heart infusion broth, read-out: MIC value
# [26] = CMX508, Table 4, brain heart infusion broth, read-out: MIC value
# [27] = ATCC9341, Table 4, brain heart infusion broth, read-out: MIC value
# [28] = Staphylococcus, 3519, Table 4, read-out: MIC value
# [29] = ATCC8043, Table 4, brain heart infusion broth, read-out: MIC value
# [30] = EES61, Table 4, brain heart infusion broth, read-out: MIC value
# [31] = CMX553, Table 4, brain heart infusion broth, read-out: MIC value
# [32] = NCTC10649, Table 4, brain heart infusion broth, read-out: MIC value
# [33] = Table 4, brain heart infusion broth
smiles,measurement,setting,value
"CC[C@H]1OC(=O)[C@H](C)[C@@H](O[C@H]2C[C@@](C)(OC)[C@@H](O)[C@H](C)O2)[C@H](C)[C@@H](O[C@@H]2O[C@H](C)C[C@H](N(C)C)[C@H]2O)[C@](C)(O)C[C@@H](C)C(=O)[C@H](C)[C@@H](O)[C@H]1C [Erythromycin B, reference compound]",MIC,[1]; [16],0.25 µg/mL
same,MIC,[2]; [17],0.03 µg/mL
same,MIC,[3]; [18],0.03 µg/mL
same,MIC,[4]; [19],0.25 µg/mL
same,MIC,[5]; [20],0.12 µg/mL
same,MIC,[6]; [21],0.03 µg/mL
same,MIC,[7]; [22],0.25 µg/mL
same,MIC,[8]; [23],0.25 µg/mL
same,MIC,[9]; Table 5,2 µg/mL
same,MIC,[10]; [24],32 µg/mL
CO[C@]1(C)C[C@H](O[C@H]2[C@H](C)[C@@H](O[C@@H]3O[C@H](C)C[C@H](N(C)C)[C@H]3O)[C@@H](C)C[C@@H](C)C(=O)[C@H](C)[C@@H](O)[C@@H](C)[C@@H](C)OC(=O)[C@@H]2C)O[C@@H](C)[C@@H]1O [6-Deoxy-15-norerythromycin B],MIC,[1]; [16],2 µg/mL
same,MIC,[2]; [17],0.5 µg/mL
same,MIC,[3]; [18],0.25 µg/mL
same,MIC,[4]; [19],2 µg/mL
same,MIC,[5]; [20],2 µg/mL
same,MIC,[6]; [21],0.25 µg/mL
same,MIC,[7]; [22],2 µg/mL
same,MIC,[8]; [23],2 µg/mL
same,MIC,[9]; Table 5,2 µg/mL
same,MIC,[10]; [24],> 128 µg/mL
CC[C@H]1OC(=O)[C@H](C)[C@@H](O[C@H]2C[C@@](C)(OC)[C@@H](O)[C@H](C)O2)[C@H](C)[C@@H](O[C@@H]2O[C@H](C)C[C@H](N(C)C)[C@H]2O)[C@@H](C)C[C@@H](C)C(=O)[C@H](C)[C@@H](O)[C@H]1C [6-Deoxyerythromycin B],MIC,[1]; [16],1 µg/mL
same,MIC,[2]; [17],0.25 µg/mL
same,MIC,[3]; [18],0.12 µg/mL
same,MIC,[4]; [19],1 µg/mL
same,MIC,[5]; [20],0.5 µg/mL
same,MIC,[6]; [21],0.12 µg/mL
same,MIC,[7]; [22],1 µg/mL
same,MIC,[8]; [23],1 µg/mL
same,MIC,[9]; Table 5,4 µg/mL
same,MIC,[10]; [24],> 128 µg/mL
CC[C@H]1OC(=O)[C@H](C)[C@@H](O[C@H]2C[C@@](C)(OC)[C@@H](O)[C@H](C)O2)[C@H](C)[C@@H](O[C@@H]2O[C@H](C)C[C@H](N(C)C)[C@H]2O)[C@@H](C)C[C@@H](C)C(=O)[C@H](C)[C@@H](O)[C@]1(C)O [6-Deoxyerythromycin A],ED50,"[11]; Staphylococcus aureus, 10649, 144 h, oral, 1 and 5 hours post-infection, intraperitoneal inoculum 100 times LD50, mortality on sixth day",90.8 mg/kg
same,ED50,"[12]; Streptococcus pneumoniae, 6303, 144 h, oral, 1 and 5 hours post-infection, intraperitoneal inoculum 100 times LD50, mortality on sixth day",24.9 mg/kg
same,ED50,"[13]; C203, 144 h, oral, 1 and 5 hours post-infection, intraperitoneal inoculum 100 times LD50, mortality on sixth day",32.4 mg/kg
same,effectiveness compared with erythromycin A,[14],as effective as erythromycin A
same,remaining at 4 h,[15],> 50%
same,remaining at 8 h,[15],~40%
same,MIC,[1]; [25],1 µg/mL
same,MIC,[2]; [26],0.12 µg/mL
same,MIC,[3]; [27],0.06 µg/mL
same,MIC,[4]; [28],1 µg/mL
same,MIC,[5]; [29],0.25 µg/mL
same,MIC,[6]; [30],0.25 µg/mL
same,MIC,[7]; [31],0.5 µg/mL
same,MIC,[8]; [32],1 µg/mL
same,MIC,[9]; Table 4,2 µg/mL
same,MIC,[10]; [33],> 128 µg/mL
CC[C@H]1OC(=O)[C@H](C)[C@@H](O[C@H]2C[C@@](C)(O)[C@@H](O)[C@H](C)O2)[C@H](C)[C@@H](O[C@@H]2O[C@H](C)C[C@H](N(C)C)[C@H]2O)[C@@H](C)C[C@@H](C)C(=O)[C@H](C)[C@@H](O)[C@]1(C)O [6-Deoxyerythromycin C],MIC,[1]; [25],2 µg/mL
same,MIC,[2]; [26],0.25 µg/mL
same,MIC,[3]; [27],0.25 µg/mL
same,MIC,[4]; [28],4 µg/mL
same,MIC,[5]; [29],0.25 µg/mL
same,MIC,[6]; [30],0.5 µg/mL
same,MIC,[7]; [31],4 µg/mL
same,MIC,[8]; [32],2 µg/mL
same,MIC,[9]; Table 4,16 µg/mL
same,MIC,[10]; [33],> 128 µg/mL
"CC[C@H]1OC(=O)[C@H](C)[C@@H](O[C@H]2C[C@@](C)(OC)[C@@H](O)[C@H](C)O2)[C@H](C)[C@@H](O[C@@H]2O[C@H](C)C[C@H](N(C)C)[C@H]2O)[C@](C)(O)C[C@@H](C)C(=O)[C@H](C)[C@@H](O)[C@]1(C)O [Erythromycin A, reference compound]",ED50,"[11]; Staphylococcus aureus, 10649, po, 144 h",120 mg/kg
same,ED50,"[12]; Streptococcus pneumoniae, 6303, po, 144 h",24.8 mg/kg
same,ED50,"[13]; C203, po, 144 h",54.5 mg/kg
same,remaining at 2 min,[15],< 10%
same,MIC,"[1]; read-out: MIC value, Table 4, brain heart infusion broth",0.25 µg/mL
same,MIC,"[1]; read-out: MIC value, Table 5, brain heart infusion broth",0.12 µg/mL
same,MIC,"[2]; CMX508, read-out: MIC value, Table 4, brain heart infusion broth",0.06 µg/mL
same,MIC,"[2]; CMX508, read-out: MIC value, Table 5, brain heart infusion broth",0.03 µg/mL
same,MIC,"[3]; ATCC9341, read-out: MIC value, Table 4, brain heart infusion broth",0.03 µg/mL
same,MIC,"[3]; ATCC9341, read-out: MIC value, Table 5, brain heart infusion broth",0.015 µg/mL
same,MIC,"[4]; Staphylococcus, 3519, read-out: MIC value, Table 4",0.5 µg/mL
same,MIC,"[4]; Staphylococcus, 3519, read-out: MIC value, Table 5",0.12 µg/mL
same,MIC,"[5]; ATCC8043, read-out: MIC value, Table 4, brain heart infusion broth",0.12 µg/mL
same,MIC,"[5]; ATCC8043, read-out: MIC value, Table 5, brain heart infusion broth",0.06 µg/mL
same,MIC,"[6]; EES61, read-out: MIC value, Table 4, brain heart infusion broth",0.03 µg/mL
same,MIC,"[6]; EES61, read-out: MIC value, Table 5, brain heart infusion broth",0.015 µg/mL
same,MIC,"[7]; CMX553, read-out: MIC value, Table 4, brain heart infusion broth",0.25 µg/mL
same,MIC,"[7]; CMX553, read-out: MIC value, Table 5, brain heart infusion broth",0.12 µg/mL
same,MIC,"[8]; NCTC10649, read-out: MIC value, Table 4, brain heart infusion broth",0.25 µg/mL
same,MIC,"[8]; NCTC10649, read-out: MIC value, Table 5, brain heart infusion broth",0.12 µg/mL
same,MIC,[9]; Table 4,1 µg/mL
same,MIC value,[9]; Table 5,1 µg/mL
same,MIC,[10]; [33],64 µg/mL
same,MIC,[10]; [24],32 µg/mL
